Species: Rattus norvegicus
Test: Open TG-GATES - Regimen: Single
Type: toxicity, organism-based, Sprague-Dawley
Set-up: regimen Single, gender Male, age 6 weeks
Details: in vivo, po, 1 mg/kg, route gavage, dose level Low; for APTT / Bas / Eos / Fbg / Hb / Ht / Lym / MCH / MCHC / MCV / Mono / Neu / PT / Plat / RBC / Ret / WBC: tissue Blood; for KIDNEY_L / KIDNEY_R / KIDNEY_TOTAL: tissue Kidney; for LIVER: tissue Liver; for A/G / ALP / ALT / AST / BUN / CRE / Ca / Cl / DBIL / GLC / IP / K / LDH / Na / PL / RALB / TBIL / TC / TG / TP / gamma-GTP: tissue Plasma

O=NN(CCCl)C(=O)NC1CCCCC1 [LOMUSTINE]
TERMINAL_BW (3 h): 204.1 g
APTT (3 h): 16.5 s
Bas (3 h): 0%
Eos (3 h): 0.2%
Fbg (3 h): 224.2 mg/dL
Hb (3 h): 13.4 g/dL
Ht (3 h): 40.4%
Lym (3 h): 78.8%
MCH (3 h): 21.6 pg
MCHC (3 h): 33.2%
MCV (3 h): 65.2 fL
Mono (3 h): 8.4%
Neu (3 h): 12.2%
PT (3 h): 11.3 s
Plat (3 h): 105.5 x10_4/uL
RBC (3 h): 619 x10_4/ul
Ret (3 h): 8.6%
WBC (3 h): 119.1 x10_2/uL
KIDNEY_L (3 h): 0.9 g
KIDNEY_R (3 h): 0.9 g
KIDNEY_TOTAL (3 h): 1.9 g
LIVER (3 h): 9.6 g
A/G (3 h): 2
ALP (3 h): 970.8 IU/L
ALT (3 h): 33.4 IU/L
AST (3 h): 60 IU/L
BUN (3 h): 11 mg/dL
CRE (3 h): 0.5 mg/dL
Ca (3 h): 11.4 mg/dL
Cl (3 h): 105.8 meq/L
DBIL (3 h): 0.028 mg/dL
GLC (3 h): 184.2 mg/dL
IP (3 h): 10 mg/dL
K (3 h): 4.8 meq/L
LDH (3 h): 82.2 IU/L
Na (3 h): 139.8 meq/L
PL (3 h): 135.8 mg/dL
RALB (3 h): 3.7 g/dL
TBIL (3 h): 0.3 mg/dL
TC (3 h): 79 mg/dL
TG (3 h): 52.4 mg/dL
TP (3 h): 5.6 g/dL
gamma-GTP (3 h): 1.4 IU/L
TERMINAL_BW (6 h): 203.2 g
APTT (6 h): 16.9 s
Bas (6 h): 0%
Eos (6 h): 0.4%
Fbg (6 h): 227.8 mg/dL
Hb (6 h): 13.4 g/dL
Ht (6 h): 40.2%
Lym (6 h): 82%
MCH (6 h): 21.8 pg
MCHC (6 h): 33.3%
MCV (6 h): 65.6 fL
Mono (6 h): 5.8%
Neu (6 h): 11.8%
PT (6 h): 12.2 s
Plat (6 h): 96.8 x10_4/uL
RBC (6 h): 613.2 x10_4/ul
Ret (6 h): 9%
WBC (6 h): 116.2 x10_2/uL
KIDNEY_L (6 h): 0.9 g
KIDNEY_R (6 h): 0.9 g
KIDNEY_TOTAL (6 h): 1.9 g
LIVER (6 h): 9 g
A/G (6 h): 2
ALP (6 h): 759.8 IU/L
ALT (6 h): 33.2 IU/L
AST (6 h): 66.6 IU/L
BUN (6 h): 11.2 mg/dL
CRE (6 h): 0.5 mg/dL
Ca (6 h): 10.9 mg/dL
Cl (6 h): 104.6 meq/L
DBIL (6 h): 0.008 mg/dL
GLC (6 h): 188.6 mg/dL
IP (6 h): 10.5 mg/dL
K (6 h): 5.1 meq/L
LDH (6 h): 90.2 IU/L
Na (6 h): 140.8 meq/L
PL (6 h): 142.8 mg/dL
RALB (6 h): 3.7 g/dL
TBIL (6 h): 0.2 mg/dL
TC (6 h): 84 mg/dL
TG (6 h): 41.2 mg/dL
TP (6 h): 5.5 g/dL
gamma-GTP (6 h): 1.4 IU/L
TERMINAL_BW (9 h): 200.6 g
APTT (9 h): 16.5 s
Bas (9 h): 0%
Eos (9 h): 0.6%
Fbg (9 h): 220.2 mg/dL
Hb (9 h): 13.3 g/dL
Ht (9 h): 40.4%
Lym (9 h): 78.6%
MCH (9 h): 21.9 pg
MCHC (9 h): 32.9%
MCV (9 h): 66.4 fL
Mono (9 h): 6.6%
Neu (9 h): 14.2%
PT (9 h): 12.4 s
Plat (9 h): 99.4 x10_4/uL
RBC (9 h): 608 x10_4/ul
Ret (9 h): 9%
WBC (9 h): 86.7 x10_2/uL
KIDNEY_L (9 h): 0.9 g
KIDNEY_R (9 h): 0.9 g
KIDNEY_TOTAL (9 h): 1.8 g
LIVER (9 h): 8.6 g
A/G (9 h): 2.5
ALP (9 h): 787 IU/L
ALT (9 h): 32 IU/L
AST (9 h): 62.6 IU/L
BUN (9 h): 8.8 mg/dL
CRE (9 h): 0.5 mg/dL
Ca (9 h): 10.6 mg/dL
Cl (9 h): 105.8 meq/L
DBIL (9 h): 0.036 mg/dL
GLC (9 h): 184.6 mg/dL
IP (9 h): 10.2 mg/dL
K (9 h): 4.6 meq/L
LDH (9 h): 76.6 IU/L
Na (9 h): 138.4 meq/L
PL (9 h): 127.4 mg/dL
RALB (9 h): 3.9 g/dL
TBIL (9 h): 0.4 mg/dL
TC (9 h): 72.4 mg/dL
TG (9 h): 39 mg/dL
TP (9 h): 5.5 g/dL
gamma-GTP (9 h): 4.2 IU/L
TERMINAL_BW (24 h): 218.5 g
APTT (24 h): 18.1 s
Bas (24 h): 0%
Eos (24 h): 1%
Fbg (24 h): 201 mg/dL
Hb (24 h): 12.6 g/dL
Ht (24 h): 37.9%
Lym (24 h): 80.8%
MCH (24 h): 21.8 pg
MCHC (24 h): 33.4%
MCV (24 h): 65.3 fL
Mono (24 h): 5.8%
Neu (24 h): 12.6%
PT (24 h): 12.2 s
Plat (24 h): 94.4 x10_4/uL
RBC (24 h): 580.2 x10_4/ul
Ret (24 h): 9%
WBC (24 h): 138.2 x10_2/uL
KIDNEY_L (24 h): 1 g
KIDNEY_R (24 h): 1 g
KIDNEY_TOTAL (24 h): 2 g
LIVER (24 h): 10.7 g
A/G (24 h): 2.2
ALP (24 h): 961 IU/L
ALT (24 h): 37.6 IU/L
AST (24 h): 68.4 IU/L
BUN (24 h): 15.8 mg/dL
CRE (24 h): 0.5 mg/dL
Ca (24 h): 11.1 mg/dL
Cl (24 h): 104.6 meq/L
DBIL (24 h): 0.018 mg/dL
GLC (24 h): 185.4 mg/dL
IP (24 h): 7.6 mg/dL
K (24 h): 4.8 meq/L
LDH (24 h): 100.6 IU/L
Na (24 h): 138 meq/L
PL (24 h): 144.6 mg/dL
RALB (24 h): 3.9 g/dL
TBIL (24 h): 0.3 mg/dL
TC (24 h): 76 mg/dL
TG (24 h): 98 mg/dL
TP (24 h): 5.7 g/dL
gamma-GTP (24 h): 1.8 IU/L
